The structures appear in SMILES notation. Where a name gives a salt, the structure may show the parent alone. A value given as a limit tells only on which side of the number the result lay.

Broadly, the IC50 is the concentration at which inhibition is half-maximal.

The target in this assay is T1, rabbit erythrocyte Na^+ /H^+ exchanger (Oryctolagus cuniculus, UniProt P23791).
T1 construct: endogenous in cells; host or cells: rabbit erythrocytes (whole heparinized blood of cholesterol-fed New Zealand White rabbits, Ivanovas)
T1 sequence (P23791 whole entry): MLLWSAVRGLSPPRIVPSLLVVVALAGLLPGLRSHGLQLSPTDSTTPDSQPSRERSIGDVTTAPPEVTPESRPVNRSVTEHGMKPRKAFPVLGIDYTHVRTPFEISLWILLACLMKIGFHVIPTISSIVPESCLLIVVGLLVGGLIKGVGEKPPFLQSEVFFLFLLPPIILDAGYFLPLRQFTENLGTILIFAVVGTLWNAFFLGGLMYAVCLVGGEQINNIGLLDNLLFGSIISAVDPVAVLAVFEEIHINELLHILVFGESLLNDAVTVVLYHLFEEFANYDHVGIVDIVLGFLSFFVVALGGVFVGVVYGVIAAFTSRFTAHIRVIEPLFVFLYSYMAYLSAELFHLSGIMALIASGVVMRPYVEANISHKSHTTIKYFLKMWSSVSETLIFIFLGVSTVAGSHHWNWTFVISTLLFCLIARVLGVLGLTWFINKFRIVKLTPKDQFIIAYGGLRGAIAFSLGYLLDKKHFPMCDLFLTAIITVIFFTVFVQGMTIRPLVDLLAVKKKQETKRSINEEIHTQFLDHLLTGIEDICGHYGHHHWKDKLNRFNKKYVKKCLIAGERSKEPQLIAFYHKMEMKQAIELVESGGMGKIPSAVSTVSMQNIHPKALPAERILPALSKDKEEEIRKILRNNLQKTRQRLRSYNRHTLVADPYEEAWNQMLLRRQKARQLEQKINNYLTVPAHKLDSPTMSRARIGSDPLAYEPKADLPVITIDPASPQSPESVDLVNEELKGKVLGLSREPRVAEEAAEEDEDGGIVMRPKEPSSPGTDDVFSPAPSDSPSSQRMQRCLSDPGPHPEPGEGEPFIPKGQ
Briefly: Inhibition of the rabbit erythrocyte Na^+ /H^+ exchanger (amiloride-sensitive Na^+ influx, flame photometry). As to conditions: erythrocytes of rabbits fed 2% cholesterol for six weeks; pH 7.4, 37° C., hyperosmolar salt/sucrose medium. In kind it is cell-based, rabbit (New Zealand White). The text has this: Inhibition of the rabbit erythrocyte Na^+ /H^+ exchanger New Zealand White rabbits (Ivanovas) were given a standard diet containing 2% cholesterol for six weeks in order to activate Na^+ /H^+ exchange and thus render it possible to use flame photometry to determine the influx of Na+into the erythrocytes by way of Na^+ /H^+ exchange. The blood was withdrawn from the aural arteries and rendered incoagulable by adding 25 IU of potassium heparin. A part of each sample was used for determining the hematocrit in duplicate by means of centrifugation. Aliquots of in each case 100 μl were used to measure the initial content of Na^+ in the erythrocytes.
In order to determine the amiloride-sensitive sodium influx, 100 μl of each blood sample were in each case incubated, at pH 7.4 and 37° C., in 5 ml of a hyperosmolar salt/sucrose medium (mmol/l: 140 NaCl, 3 KCl, 150 sucrose, 0.1 ouabain, 20 tris(hydroxymethyl)aminomethane). After that, the erythrocytes were washed three times with an ice cold solution of MgCl2 /ouabain (mmol/l: 112 MgCl2, 0.1 ouabain) and hemolyzed in 2.0 ml of distilled water. The intracellular content of sodium was determined by flame photometry.
The net influx of Na^+ was calculated from the difference between the initial sodium values and the sodium content of the erythrocytes after incubation. The amiloride-inhibitable sodium influx was obtained from the difference in the sodium content of the erythrocytes after incubation with and without 3×10^-4 mol/l amiloride. The same procedure was used in the case of the novel compounds.

On to `COc1cc(C(F)(F)F)cc(C(=O)N=C(N)N)c1OC` [Example 1, 2,3-Dimethoxy-5-trifluoromethylbenzoylguanidine hydrochloride], for which the IC50 amounted to 53 nM. The same measure for `COc1cc(OC)c(C(F)(F)F)cc1C(=O)N=C(N)N` [Example 7, 2,4-Dimethoxy-5-trifluoromethylbenzoylguanidine hydrochloride]: 200 nM. The figure for `COc1cc(C)ccc1C(=O)N=C(N)N` [Example 5, 2-Methoxy-4-methylbenzoylguanidine hydrochloride] is greater than 1000 nM; for `COc1c(I)cc(C(F)(F)F)cc1C(=O)N=C(N)N` [Example 2, 2-Methoxy-3-iodo-5-trifluoromethylbenzoylguanidine hydrochloride] it is 17 nM. The same measure for `COc1c(C(=O)N=C(N)N)cc(C(C)(C)C)cc1C(C)(C)C` [Example 6, 3,5-Bis-tert-butyl-2-methoxybenzoylguanidine hydrochloride]: 1000 nM.

These data come from US6153651A, “Ortho-substituted benzoylguanidines, process for their preparation, their use as a medicament or diagnostic, and medicament comprising them” (Hoechst Aktiengesellschaft, priority 1996, dated 2000).
